Test results taken from PubChem BioAssay (NCI).
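Step 1: Grow cells in 96-well plates. Step 2: Expose to compound for 48 hours at 5 concentrations. Step 3: Interpolate endpoints linearly; if unreached, use highest concentration. At the TGI there is no net growth.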

Assays:
Assay in all cases: DTP human tumour cell line panel, 48 h
HOP-62 NSCLC = tested on: HOP-62 NSCLC
OVCAR-8 ovarian = tested on: OVCAR-8 ovarian
SK-MEL-2 melanoma = tested on: SK-MEL-2 melanoma
OVCAR-5 ovarian = tested on: OVCAR-5 ovarian
SF-268 CNS = tested on: SF-268 CNS
RPMI-8226 leukemia = tested on: RPMI-8226 leukemia
NCI-H226 lung = tested on: NCI-H226 lung
EKVX NSCLC = tested on: EKVX NSCLC
RXF 393 renal = tested on: RXF 393 renal
SNB-19 CNS = tested on: SNB-19 CNS
OVCAR-3 ovarian = tested on: OVCAR-3 ovarian
SNB-75 CNS = tested on: SNB-75 CNS
UACC-62 melanoma = tested on: UACC-62 melanoma
786-0 renal = tested on: 786-0 renal
T-47D breast = tested on: T-47D breast
COLO 205 colon = tested on: COLO 205 colon
NCI/ADR-RES ovarian = tested on: NCI/ADR-RES ovarian
SF-295 CNS = tested on: SF-295 CNS
PC-3 prostate = tested on: PC-3 prostate
A549 NSCLC = tested on: A549 NSCLC

SMILES	TGI (HOP-62 NSCLC)	TGI (OVCAR-8 ovarian)	TGI (SK-MEL-2 melanoma)	TGI (OVCAR-5 ovarian)	TGI (SF-268 CNS)	TGI (RPMI-8226 leukemia)	TGI (NCI-H226 lung)	TGI (EKVX NSCLC)	TGI (RXF 393 renal)	TGI (SNB-19 CNS)	TGI (OVCAR-3 ovarian)	TGI (SNB-75 CNS)	TGI (UACC-62 melanoma)	TGI (786-0 renal)	TGI (T-47D breast)	TGI (COLO 205 colon)	TGI (NCI/ADR-RES ovarian)	TGI (SF-295 CNS)	TGI (PC-3 prostate)	TGI (A549 NSCLC)
CCOc1ccc(NC(=O)/C(=N\NC(C)(C)C)C2C(=O)Nc3ccccc3S2=O)cc1 (configuration not stated)	> 100 µM	> 100 µM	> 100 µM	> 100 µM	> 100 µM	> 100 µM	> 100 µM	> 100 µM	> 100 µM	> 100 µM	> 100 µM	> 100 µM	> 100 µM	> 100 µM	> 100 µM	> 100 µM	> 100 µM	> 100 µM	> 100 µM	> 100 µM
CC(C)(C)OC(=O)N(O)CCCn1cnc2c(N)ncnc21	> 100 µM	> 100 µM	> 100 µM	> 100 µM	> 100 µM	> 100 µM	> 100 µM	> 100 µM	> 100 µM	> 100 µM	> 100 µM	> 100 µM	> 100 µM	> 100 µM	> 100 µM	> 100 µM	> 100 µM	> 100 µM	> 100 µM	> 100 µM
COc1cc(C2SC(N)=Nc3c2c(C)nn3C(=O)c2ccccc2O)ccc1O (configuration not stated)	> 10 µM	> 10 µM	> 10 µM	> 10 µM	> 10 µM	> 7.78 µM	> 6.18 µM	> 10 µM	> 10 µM	> 10 µM	> 10 µM	> 10 µM	> 10 µM	> 10 µM	> 10 µM	> 10 µM	> 10 µM	> 10 µM	> 10 µM	> 10 µM
Cc1ccc2c(n1)C(=O)C=CC2=O	> 58.3 µM	33.7 µM	32.3 µM	34.4 µM	42.7 µM	11 µM	42.8 µM	15 µM	13.6 µM	34 µM	8.54 µM	38.2 µM	29.2 µM	11.4 µM	4.74 µM	4.95 µM	48.6 µM	35.7 µM	31.9 µM	41.2 µM
Cc1ccc2c(c1)C(=O)N1CCC[C@H]1C=N2	> 83.1 µM	> 100 µM	34.9 µM	> 93.1 µM	> 100 µM	> 53.3 µM	–	71 µM	16.1 µM	> 100 µM	> 67.2 µM	–	34.7 µM	> 100 µM	> 100 µM	37.8 µM	> 64 µM	> 100 µM	> 74.4 µM	> 100 µM
COc1cc(C=C2C(C)=NN(c3cccc(Cl)c3)C23C(Cl)C(=O)N3c2nc3ccccc3s2)ccc1O (configuration not stated)	69.1 µM	41.5 µM	36.3 µM	50.9 µM	16 µM	30.5 µM	63.6 µM	> 100 µM	30.3 µM	–	72.2 µM	–	–	43.7 µM	> 100 µM	–	> 100 µM	> 100 µM	30.4 µM	–
COc1cc(NC(C)=O)ccc1C(=O)NN1C(=O)C(Cl)C1c1ccco1 (configuration not stated)	–	> 100 µM	> 100 µM	> 100 µM	> 100 µM	> 100 µM	> 100 µM	> 100 µM	> 100 µM	> 100 µM	> 100 µM	> 100 µM	> 100 µM	> 100 µM	> 100 µM	> 100 µM	> 100 µM	–	> 100 µM	> 100 µM
O=C1CC(=O)NC(=NN2C(=O)/C(=C/c3ccccc3)N=C2c2ccccc2)N1	> 100 µM	> 100 µM	> 100 µM	> 100 µM	> 100 µM	> 100 µM	> 100 µM	–	> 100 µM	–	> 100 µM	> 100 µM	96.5 µM	> 100 µM	> 100 µM	> 100 µM	> 100 µM	> 100 µM	> 100 µM	> 100 µM
N#CC(=C1CCCCC1)c1nc2ccccc2o1	> 100 µM	> 100 µM	> 100 µM	> 100 µM	> 100 µM	71.3 µM	> 100 µM	89.4 µM	> 100 µM	> 100 µM	> 100 µM	–	> 100 µM	> 100 µM	> 100 µM	33.7 µM	> 100 µM	> 100 µM	> 100 µM	> 100 µM
Cc1cc(S(=O)(=O)/N=C(\[N-]S(=O)(=O)c2ccc(Cl)cc2)[n+]2ccc(N(C)C)cc2)c(S)cc1Cl	> 100 µM	> 100 µM	> 100 µM	> 100 µM	> 100 µM	> 100 µM	> 100 µM	> 100 µM	> 100 µM	–	> 100 µM	–	–	> 100 µM	> 100 µM	–	> 100 µM	> 100 µM	> 100 µM	–
Cc1c2c(n(CCc3ccccc3)c1C)N(C)N=C(C#N)S2(=O)=O	> 100 µM	> 100 µM	> 100 µM	> 100 µM	> 100 µM	> 100 µM	> 100 µM	> 100 µM	> 100 µM	> 100 µM	> 100 µM	> 100 µM	> 100 µM	> 100 µM	> 100 µM	–	> 100 µM	> 100 µM	> 100 µM	> 100 µM
c1ccc(P(CCP(c2ccccn2)c2ccccn2)c2ccccc2)cc1	> 100 µM	> 100 µM	66.3 µM	> 100 µM	–	40.6 µM	> 100 µM	9 µM	98 µM	> 100 µM	–	54 µM	> 100 µM	> 100 µM	> 100 µM	37.8 µM	> 100 µM	> 56.6 µM	72.6 µM	> 100 µM
O=C(C[n+]1ccccc1)N/N=C(\Cc1nc2ccc([N+](=O)[O-])cc2[nH]c1=O)C(=O)Nc1cc(Cl)c(Cl)cc1Cl	–	> 100 µM	> 100 µM	> 100 µM	> 100 µM	> 100 µM	> 100 µM	> 100 µM	> 100 µM	> 100 µM	> 100 µM	> 100 µM	> 100 µM	> 100 µM	> 100 µM	> 100 µM	> 100 µM	> 100 µM	> 100 µM	> 100 µM
C/C(=N\Nc1nc2ccccc2n1C)c1cnccn1	37 µM	> 100 µM	> 100 µM	> 100 µM	> 100 µM	–	> 100 µM	> 100 µM	> 100 µM	> 100 µM	2.75 µM	> 100 µM	–	> 39.2 µM	> 100 µM	> 100 µM	3.14 µM	> 100 µM	> 100 µM	> 100 µM
CC=CCOc1cc(NC(=S)OC(C)C)ccc1Cl (mixture of isomers)	45.4 µM	33.9 µM	28.6 µM	44.5 µM	37.9 µM	> 100 µM	33 µM	36.6 µM	30.8 µM	56.6 µM	38.1 µM	–	30.7 µM	31.6 µM	35.7 µM	33.3 µM	31.9 µM	35.5 µM	34.3 µM	33.1 µM
N#CC(C#N)=C(N)/C(C#N)=C/c1ccc2ccccc2n1	33 µM	> 100 µM	> 100 µM	> 100 µM	> 100 µM	> 100 µM	> 100 µM	> 100 µM	42.1 µM	77.7 µM	33.4 µM	> 100 µM	45.9 µM	34.2 µM	> 100 µM	–	> 100 µM	59.6 µM	79.4 µM	> 100 µM
Brc1c(C#CCC(c2ccccc2)(c2ccccc2)c2ccccc2)ccc(C#CCC(c2ccccc2)(c2ccccc2)c2ccccc2)c1Br	–	> 100 µM	> 100 µM	> 100 µM	> 100 µM	> 100 µM	> 100 µM	> 100 µM	> 100 µM	> 100 µM	> 100 µM	> 100 µM	> 100 µM	> 100 µM	> 100 µM	> 100 µM	> 100 µM	> 100 µM	> 100 µM	> 100 µM
CCN(CC)CCNC(=O)c1ccc(I)cc1	> 100 µM	> 100 µM	> 100 µM	> 100 µM	> 100 µM	> 100 µM	> 100 µM	> 100 µM	> 100 µM	> 100 µM	> 100 µM	> 100 µM	–	> 100 µM	> 100 µM	> 100 µM	> 100 µM	> 100 µM	> 100 µM	> 100 µM
Cc1ccc(S(=O)(=O)N2C[C@](O)(c3ccccc3)[C@H]2C)cc1	> 100 µM	> 100 µM	> 100 µM	> 100 µM	> 100 µM	–	> 100 µM	> 100 µM	> 100 µM	> 100 µM	–	> 100 µM	> 100 µM	> 100 µM	> 100 µM	> 100 µM	> 100 µM	> 100 µM	> 100 µM	> 100 µM
CC(=O)Oc1cc2c(c3ncccc13)OC(C)(C)C2	30.6 µM	74.8 µM	44.6 µM	29 µM	25.9 µM	> 100 µM	33.1 µM	–	26.8 µM	–	55 µM	17.2 µM	> 100 µM	30.3 µM	81.2 µM	35 µM	23.9 µM	36.1 µM	> 100 µM	27.4 µM
CC1=CCC2C3(C)CCC2(C(C)C)C1C3 (configuration not stated) (tested in a mixture with another compound)	57.5 µM	33.2 µM	32.2 µM	37.6 µM	36.1 µM	56.7 µM	–	50.9 µM	33.2 µM	33.8 µM	30.2 µM	77.5 µM	> 100 µM	47.3 µM	> 100 µM	65 µM	37.7 µM	40.3 µM	> 100 µM	39 µM
CCCCSC1=N/C(=C\c2ccc(N(C)C)cc2)C(NN)=N1	> 100 µM	> 100 µM	> 100 µM	> 100 µM	> 100 µM	> 100 µM	–	> 100 µM	> 100 µM	> 100 µM	> 100 µM	> 100 µM	> 100 µM	> 100 µM	> 100 µM	–	> 100 µM	> 100 µM	> 100 µM	> 100 µM
Cc1cc(N=Nc2c(O)ccc3ccccc23)ccc1N=Nc1cccc([N+](C)(C)C)c1	43.2 µM	57.3 µM	47.3 µM	60.8 µM	57.1 µM	> 46.5 µM	30.2 µM	62.1 µM	48.7 µM	26 µM	41 µM	26.3 µM	> 61.6 µM	> 92 µM	> 100 µM	–	> 100 µM	51.9 µM	35.1 µM	> 52.2 µM
O=C1N2CCc3c([nH]c4ccccc34)C23CC2CCCCC12S3 (configuration not stated)	> 100 µM	> 100 µM	–	> 100 µM	> 100 µM	> 100 µM	> 100 µM	> 100 µM	> 100 µM	> 100 µM	> 100 µM	–	> 100 µM	> 100 µM	> 100 µM	> 100 µM	> 100 µM	> 100 µM	> 100 µM	> 100 µM
O=C1NC(N2CCCCC2)=N/C1=C\c1cccs1	> 100 µM	> 100 µM	> 100 µM	> 100 µM	> 100 µM	> 100 µM	> 100 µM	> 100 µM	> 100 µM	> 100 µM	> 100 µM	–	> 100 µM	> 100 µM	> 100 µM	> 100 µM	> 100 µM	> 100 µM	> 100 µM	> 100 µM
